Columns and labels:
[1] = test system: J774 cells; experiment: ACAT inhibitory activity (anti-foamation activity) in J774 cells; type: cell-based; conditions: for IC50: Mus musculus, J774 cells, 25-OH cholesterol 10 μg/ml, 18 hours, read-out: Enzyme (J774) IC50; for IC50 (HepG2)/IC50 (J774): ratio HepG2 / J774
Procedure: (§1) J774 cells or HepG2 cells were spread on a 24-well plate. The cells were incubated in a 5% CO2 incubator at 37° C. for 24 hours using DMEM in the case of the J774 cells and a MEM culture solution in the case of the HepG2 cells (both containing 10% fetal calf serum).
(§2) The medium was removed, and the residue was washed twice with PBS, then extracted with 1.5 ml of a hexane:isopropanol (3:2) mixture, and concentrated to dryness. The extract was dissolved in 0.2 ml of isopropanol containing 10% Triton X-100. Total cholesterol (TC) and free cholesterol (FC) were measured using Cholesterol E Test Wako (supplied by Wako Pure Chemical Industries, Ltd.) and Free Cholesterol E Test Wako (supplied by Wako Pure Chemical Industries, Ltd.).
(§3) The cell extract residue was solubilized in 0.25 ml of 2N NaOH at 37° C. for 30 minutes, and the protein amount was measured using BCA Protein Assay Reagent (Pierce).
(§4) The amount of cholesterol based on the protein was calculated from the difference between TC and FC, and an IC50 value was obtained from the calculation in contrast with the control.

[2] = test system: HepG2 cells; experiment: ACAT inhibitory activity (anti-foamation activity) in HepG2 cells; type: cell-based; conditions: Homo sapiens, 25-OH cholesterol 10 μg/ml, 18 hours, read-out: Enzyme (HepG2) IC50
Procedure: as §1, §2, §3, §4

[3] = target: T1, ACAT (enzyme solution derived from the small intestine of a rabbit); experiment: ACAT inhibitory activity, enzyme solution from rabbit small intestine; type: biochemical; conditions: B‡: the small intestine
T1 construct: An enzyme solution derived from the small intestine was prepared from the small intestine of a rabbit that had eaten a normal food
Procedure: (§5) A microsome was prepared from the breast aorta of a rabbit which had been fed with 1% cholesterol food for 8 weeks in a usual manner, and suspended in a 0.15 M phosphate buffer solution (pH 7.4) to form an enzyme solution. An enzyme solution derived from the small intestine was prepared from the small intestine of a rabbit that had eaten a normal food.
(§6) To this solution were added 10 μl of the enzyme solution, and the mixture was reacted at 37° C. for 5 minutes (for 3 minutes in the case of the small intestine). Then, 3 ml of a chloroform/methanol (2/1) mixture and 0.5 ml of 0.04 N hydrochloric acid were added thereto to stop the reaction. The lipid was then extracted. The solvent layer was concentrated to dryness, and dissolved in hexane. The solution was spotted on a TLC plate(supplied by Merck Co.). The elution was conducted with a hexane:ether:acetic acid (75:25:1) mixture.
(§7) The radioactivity of the resulting cholesterol ester fraction was measured using BAS 2000 (supplied by Fuji Photo Film Co., Ltd.). An IC50 value was obtained from the calculation in contrast with a control containing only DMSO.

[4] = target: ACAT (microsome from the breast aorta of a rabbit) (Oryctolagus cuniculus, UniProt G1SUQ0); experiment: ACAT inhibitory activity, microsome from rabbit breast aorta (blood vessel wall enzyme); type: biochemical; conditions: microsome from breast aorta of cholesterol-fed rabbit
Procedure: as §5, §6, §7

Chain of ACAT (microsome from the breast aorta of a rabbit) (G1SUQ0 entry or part of it): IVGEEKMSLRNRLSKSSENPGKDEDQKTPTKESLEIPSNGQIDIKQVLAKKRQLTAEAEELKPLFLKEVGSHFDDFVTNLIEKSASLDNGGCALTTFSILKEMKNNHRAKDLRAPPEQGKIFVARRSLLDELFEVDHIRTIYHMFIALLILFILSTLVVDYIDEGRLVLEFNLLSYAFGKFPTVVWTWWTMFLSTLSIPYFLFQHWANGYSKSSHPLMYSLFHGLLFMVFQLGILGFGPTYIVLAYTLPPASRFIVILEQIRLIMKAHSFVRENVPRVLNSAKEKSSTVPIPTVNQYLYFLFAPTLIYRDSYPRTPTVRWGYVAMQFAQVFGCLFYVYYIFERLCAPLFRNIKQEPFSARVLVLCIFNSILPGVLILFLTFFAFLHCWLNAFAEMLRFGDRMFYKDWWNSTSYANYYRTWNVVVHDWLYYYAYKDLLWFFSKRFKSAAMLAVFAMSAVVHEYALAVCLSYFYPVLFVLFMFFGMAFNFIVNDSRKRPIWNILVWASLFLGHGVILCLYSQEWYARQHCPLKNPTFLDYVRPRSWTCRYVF

| SMILES | IC50 [1] [nM] | IC50 (HepG2)/IC50 (J774) [1] | IC50 [2] [nM] | melting point [°C] | IC50 [3] [nM] | IC50 [4] [nM] |
| --- | --- | --- | --- | --- | --- | --- |
| Cc1cc(SC(C)C)c(NC(=O)CCCCCCSc2nc3cccc(C(F)(F)F)c3o2)c(SC(C)C)n1 [Compound No. 1292, 7-(7-trifluoromethylbenzoxazol-2-ylthio)-N-[2,4-bis(isopropylthio)-6-methyl-3-pyridyl]heptanamide] | 2.7 | 11.1 | 30 | 76 to 78 | – | – |
| Cc1cc(SC(C)C)c(NC(=O)CCCCCCCCSc2nc3cccc(C(F)(F)F)c3o2)c(SC(C)C)n1 [Compound No. 1294, 9-(7-trifluoromethylbenzoxazol-2-ylthio)-N-[2,4-bis(isopropylthio)-6-methyl-3-pyridyl]nonanamide] | 4.2 | 0.6 | 2.4 | 97 to 98 | – | – |
| CC(C)c1cccc(C(C)C)c1NC(=O)C(C)(C)CCCOc1ccc2c(c1)C=C(c1nccn1C)C(CCc1ccc(F)cc1)O2 (stereo not drawn) [Control 1, 5-[2-(2-(4-fluorophenyl)ethyl)-3-(1-methyl-1H-imidazol-2-yl)-2H-1-benzopyran-6-yl]oxy-2,2-dimethyl-N-(2,6-diisopropylphenyl)pentanamide, reference compound] | 560 | – | – | – | 870 | – |
| CCCCCCCCCN(CC(C)(C)C)C(=O)N[C@H]1CCCC[C@@H]1OC(=O)CCNC(=O)C1OC(C)(C)OCC1(C)C (stereo partly drawn) [Control 3, N-(2,2,5,5-tetramethyl-1,3-dioxan-4-ylcarbonyl)-β-alanine 2 (S)-[N′-(2,2-dimethylpropyl)-N′-nonylureido]-1(S)-cyclohexyl ester] | 320 | – | – | – | 56 | 34 |
| CCCCCCCN(CCCCCSc1nc(-c2ccccc2)c(-c2ccccc2)[nH]1)c1nc2ccccc2o1 [Control 4, [5-(4,5-diphenyl-1H-imidazol-2-ylthio)pentyl]-N-heptyl-2-benzoxazolamie, reference compound] | 120 | – | – | – | 37 | – |
| CC(C)c1cccc(C(C)C)c1NC(=O)CCCCCSc1nc2ccccc2o1 [Control 5, 6-(benzoxazol-2-ylthio)-N-(2,6-diisopropylphenyl)hexanamide, reference compound] | 1900 | – | – | – | 65 | – |
| Cc1cc(SC(C)C)c(NC(=O)CCCSc2nc3ccccc3o2)c(SC(C)C)n1 [compound 843, 4-(benzoxazol-2-ylthio)-N-[2,4-bis(isopropylthio)-6-methyl-3-pyridyl]butanamide] | – | – | – | 128 to 129 | – | – |

From patent US7414066B2, “Amide compounds and medications containing the same technical field” (Kowa Company Ltd., priority 1999, dated 2008)
